Measurements reported in patent US9944646B2, “Bicyclic azaheterocyclobenzylamines as PI3K inhibitors” (Incyte Corporation, priority 2012, dated 2018).

Target: PI3Kδ (Homo sapiens (Human), UniProt O00329)
Test: PI3K Enzyme Assay (Example A2), [γ-33P]ATP filter plate
Format: biochemical
Experimental: Example A2: PI3K Enzyme Assay
Lipid kinase substrate, phosphoinositol-4,5-bisphosphate (PIP2), are purchased from Echelon Biosciences (Salt Lake City, Utah). PI3K isoforms α, β, δ and γ are purchased from Millipore (Bedford, Mass.). ATP, MgCl2, DTT, EDTA, MOPS and CHAPS are purchased from Sigma-Aldrich (St. Louis, Mo.).
The kinase reaction are conducted in clear-bottom 96-well plate from Thermo Fisher Scientific in a final volume of 24 μL. Inhibitors are first diluted serially in DMSO and added to the plate wells before the addition of other reaction components. The final concentration of DMSO in the assay is 0.5%. The PI3K assays are carried out at room temperature in 20 mM MOPS, pH 6.7, 10 mM MgCl2, 5 mM DTT and CHAPS 0.03%. The reaction mixture is prepared containing 50 µM PIP2, kinase and varying concentration of inhibitors. Reactions are initiated by the addition of ATP containing 2.2 μCi [γ-^33P]ATP to a final concentration of 1000 μM. The final concentration of PI3K isoforms α, β, δ and γ in the assay were 1.3, 9.4, 2.9 and 10.8 nM, respectively. Reactions are incubated for 180 minutes and terminated by the addition of 100 μL of 1 M potassium phosphate pH 8.0, 30 mM EDTA quench buffer. A 100 μL aliquot of the reaction solution are then transferred to 96-well Millipore MultiScreen IP […] PVDF filter plate (The filter plate is prewetted with 200 μL 100% ethanol, distilled water, and 1 M potassium phosphate pH 8.0, respectively). The filter plate is aspirated on a Millipore Manifold under vacuum and washed with 18×200 μL wash buffer containing 1 M potassium phosphate pH 8.0 and 1 mM ATP. After drying by aspiration and blotting, the plate is air dried in an incubator at 37° C. overnight. Packard TopCount adapter (Millipore) is then attached to the plate followed with addition of 120 μL Microscint 20 scintillation cocktail (Perkin Elmer) in each well. After the plate sealing, the radioactivity of the product is determined by scintillation counting on Topcount (Perkin-Elmer). IC50 determination is performed by fitting the curve of percent control activity versus the log of the inhibitor concentration using the GraphPad Prism 3.0 software.

Sequence of PI3Kδ (O00329 whole entry): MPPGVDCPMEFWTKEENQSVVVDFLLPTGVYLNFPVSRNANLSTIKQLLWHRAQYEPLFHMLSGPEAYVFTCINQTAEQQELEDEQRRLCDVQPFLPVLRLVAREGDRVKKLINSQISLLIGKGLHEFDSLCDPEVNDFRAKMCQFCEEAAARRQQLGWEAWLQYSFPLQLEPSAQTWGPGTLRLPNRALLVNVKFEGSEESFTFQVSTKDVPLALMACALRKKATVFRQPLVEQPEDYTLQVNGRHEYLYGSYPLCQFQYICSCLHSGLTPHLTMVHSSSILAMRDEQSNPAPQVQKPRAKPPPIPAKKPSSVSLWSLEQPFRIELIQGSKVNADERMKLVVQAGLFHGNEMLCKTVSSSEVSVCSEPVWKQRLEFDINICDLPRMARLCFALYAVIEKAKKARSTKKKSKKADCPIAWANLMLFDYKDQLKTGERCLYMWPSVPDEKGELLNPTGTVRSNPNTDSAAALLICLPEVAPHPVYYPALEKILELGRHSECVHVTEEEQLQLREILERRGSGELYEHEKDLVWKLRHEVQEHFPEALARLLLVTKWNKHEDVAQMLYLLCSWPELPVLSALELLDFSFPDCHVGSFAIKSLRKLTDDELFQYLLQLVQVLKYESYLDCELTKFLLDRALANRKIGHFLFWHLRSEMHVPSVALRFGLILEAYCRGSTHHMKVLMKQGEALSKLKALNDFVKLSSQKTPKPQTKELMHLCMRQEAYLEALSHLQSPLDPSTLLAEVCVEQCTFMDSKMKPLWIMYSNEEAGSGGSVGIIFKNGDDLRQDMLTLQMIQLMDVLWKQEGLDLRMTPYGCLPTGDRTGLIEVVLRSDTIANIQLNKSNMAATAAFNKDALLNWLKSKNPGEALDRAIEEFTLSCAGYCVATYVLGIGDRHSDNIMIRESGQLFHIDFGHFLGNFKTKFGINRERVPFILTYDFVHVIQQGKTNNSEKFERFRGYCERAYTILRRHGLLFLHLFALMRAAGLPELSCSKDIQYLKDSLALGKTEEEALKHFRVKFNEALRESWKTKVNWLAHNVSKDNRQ
Sequence of PI3Kδ (P27986 whole entry partner): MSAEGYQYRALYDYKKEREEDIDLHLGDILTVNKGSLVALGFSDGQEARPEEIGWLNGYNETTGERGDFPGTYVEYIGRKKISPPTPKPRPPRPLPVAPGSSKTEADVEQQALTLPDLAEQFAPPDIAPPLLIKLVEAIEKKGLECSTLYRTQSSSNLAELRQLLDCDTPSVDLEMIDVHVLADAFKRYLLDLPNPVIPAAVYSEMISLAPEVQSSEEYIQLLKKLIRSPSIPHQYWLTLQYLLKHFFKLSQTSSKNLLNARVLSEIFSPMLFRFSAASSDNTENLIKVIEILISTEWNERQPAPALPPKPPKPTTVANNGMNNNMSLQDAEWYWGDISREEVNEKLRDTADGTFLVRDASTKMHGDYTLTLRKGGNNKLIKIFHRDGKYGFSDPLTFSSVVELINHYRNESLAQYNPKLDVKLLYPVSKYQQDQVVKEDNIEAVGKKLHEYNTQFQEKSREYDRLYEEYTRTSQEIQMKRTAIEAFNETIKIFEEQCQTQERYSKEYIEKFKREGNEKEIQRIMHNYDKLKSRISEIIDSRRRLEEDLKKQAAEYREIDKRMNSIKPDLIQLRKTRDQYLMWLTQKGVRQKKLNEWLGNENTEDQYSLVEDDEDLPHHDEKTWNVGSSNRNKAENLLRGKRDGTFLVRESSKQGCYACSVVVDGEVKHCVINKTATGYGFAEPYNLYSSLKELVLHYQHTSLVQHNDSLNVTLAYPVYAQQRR

| Compound | IC50 [µM] |
| --- | --- |
| CCC1CN(CCO)Cc2c(C#N)c(Cl)cc(C(C)n3nc(C)c4c(N)ncnc43)c2O1 (single isomer, unassigned) [Example 69, 9-[1-(4-Amino-3-methyl-1H-pyrazolo[3,4-d]pyrimidin-1-yl)ethyl]-7-chloro-2-ethyl-4-(2-hydroxyethyl)-2,3,4,5-tetrahydro-1,4-benzoxazepine-6-carbonitrile] | ≤ 0.1 |
| CCC1CN(CCO)Cc2c(C#N)c(Cl)cc(C(C)n3nc(C)c4c(N)ncnc43)c2O1 (single isomer, unassigned) [Example 70, 9-[1-(4-Amino-3-methyl-1H-pyrazolo[3,4-d]pyrimidin-1-yl)ethyl]-7-chloro-2-ethyl-4-(2-hydroxyethyl)-2,3,4,5-tetrahydro-1,4-benzoxazepine-6-carbonitrile] | ≤ 0.1 |
| CC(=O)N1CC(N2Cc3c(F)c(Cl)cc(C(C)n4nc(C)c5c(N)ncnc54)c3OC(C)C2=O)C1 (single isomer, unassigned) [Example 72, 4-(1-Acetylazetidin-3-yl)-9-[1-(4-amino-3-methyl-1H-pyrazolo[3,4-d]pyrimidin-1-yl)ethyl]-7-chloro-6-fluoro-2-methyl-4,5-dihydro-1,4-benzoxazepin-3(2H)-one] | 0.1 to 0.5 |
| Cc1nn(C(C)c2cc(Cl)c(F)c3c2OC(C)CN(C[C@@H](C)O)C3)c2ncnc(N)c12 (single isomer, unassigned) [Example 77] | ≤ 0.1 |
| Cc1nn(C(C)c2cc(Cl)c(F)c3c2OC(C)CN(C[C@@H](C)O)C3)c2ncnc(N)c12 (single isomer, unassigned) [Example 78] | ≤ 0.1 |
| COC(=O)N1CC(N2Cc3c(F)c(Cl)cc(C(C)n4nc(C)c5c(N)ncnc54)c3OC(C)C2)C1 (single isomer, unassigned) [Example 80, methyl 3-[9-[1-(4-amino-3-methyl-1H-pyrazolo[3,4-d]pyrimidin-1-yl)ethyl]-7-chloro-6-fluoro-2-methyl-2,3-dihydro-1,4-benzoxazepin-4(5H)-yl]azetidine-1-carboxylate] | ≤ 0.1 |
| Cc1nn(C(C)c2cc(Cl)c(F)c3c2OC(C)CN(C2CN(S(N)(=O)=O)C2)C3)c2ncnc(N)c12 (single isomer, unassigned) [Example 81, 3-[9-[1-(4-amino-3-methyl-1H-pyrazolo[3,4-d]pyrimidin-1-yl)ethyl]-7-chloro-6-fluoro-2-methyl-2,3-dihydro-1,4-benzoxazepin-4(5H)-yl]azetidine-1-sulfonamide] | ≤ 0.1 |
| Cc1nn(C(C)c2cc(Cl)c(F)c3c2OC(C)CN(C2CN(C(N)=O)C2)C3)c2ncnc(N)c12 (single isomer, unassigned) [Example 83, 3-[9-[1-(4-amino-3-methyl-1H-pyrazolo[3,4-d]pyrimidin-1-yl)ethyl]-7-chloro-6-fluoro-2-methyl-2,3-dihydro-1,4-benzoxazepin-4(5H)-yl]azetidine-1-carboxamide] | ≤ 0.1 |
| Cc1nn(C(C)c2cc(Cl)c(F)c3c2OC(C)CN(C2CN(C(N)=O)C2)C3)c2ncnc(N)c12 (single isomer, unassigned) [Example 84, 3-[9-[1-(4-amino-3-methyl-1H-pyrazolo[3,4-d]pyrimidin-1-yl)ethyl]-7-chloro-6-fluoro-2-methyl-2,3-dihydro-1,4-benzoxazepin-4(5H)-yl]azetidine-1-carboxamide] | ≤ 0.1 |
| Cc1nn(C(C)c2cc(Cl)c(F)c3c2O[C@@H](C)CN(C2CN(CC(N)=O)C2)C3)c2ncnc(N)c12 (single isomer, unassigned) [Example 87] | 0.1 to 0.5 |

Next, values leading:

| IC50 [µM] | Compound |
| --- | --- |
| ≤ 0.1 | Cc1nn(C(C)c2cc(Cl)c(F)c3c2O[C@@H](C)CN(C2CN(CC(N)=O)C2)C3)c2ncnc(N)c12 (single isomer, unassigned) [Example 88] |
| ≤ 0.1 | Cc1nn(C(C)c2cc(Cl)c(C#N)c3c2OC(C)CN(C2CN(S(C)(=O)=O)C2)C3)c2ncnc(N)c12 (single isomer, unassigned) [Example 93, 9-[1-(4-amino-3-methyl-1H-pyrazolo[3,4-d]pyrimidin-1-yl)ethyl]-7-chloro-2-methyl-4-[1-(methylsulfonyl)azetidin-3-yl]-2,3,4,5-tetrahydro-1,4-benzoxazepine-6-carbonitrile] |
| ≤ 0.1 | Cc1nn(C(C)c2cc(Cl)c(C#N)c3c2OC(C)CN(C2CN(S(C)(=O)=O)C2)C3)c2ncnc(N)c12 (single isomer, unassigned) [Example 94, 9-[1-(4-amino-3-methyl-1H-pyrazolo[3,4-d]pyrimidin-1-yl)ethyl]-7-chloro-2-methyl-4-[1-(methylsulfonyl)azetidin-3-yl]-2,3,4,5-tetrahydro-1,4-benzoxazepine-6-carbonitrile] |
| ≤ 0.1 | CCC(=O)N1CC(N2Cc3c(C#N)c(Cl)cc(C(C)n4nc(C)c5c(N)ncnc54)c3OC(C)C2)C1 (single isomer, unassigned) [Example 95, 9-[1-(4-amino-3-methyl-1H-pyrazolo[3,4-d]pyrimidin-1-yl)ethyl]-7-chloro-2-methyl-4-(1-propionylazetidin-3-yl)-2,3,4,5-tetrahydro-1,4-benzoxazepine-6-carbonitrile] |
| ≤ 0.1 | CCNC(=O)N1CC(N2Cc3c(C#N)c(Cl)cc(C(C)n4nc(C)c5c(N)ncnc54)c3OC(C)C2)C1 (single isomer, unassigned) [Example 97, 3-[9-[1-(4-amino-3-methyl-1H-pyrazolo[3,4-d]pyrimidin-1-yl)ethyl]-7-chloro-6-cyano-2-methyl-2,3-dihydro-1,4-benzoxazepin-4(5H)-yl]-N-ethylazetidine-1-carboxamide] |
| ≤ 0.1 | CCNC(=O)N1CC(N2Cc3c(C#N)c(Cl)cc(C(C)n4nc(C)c5c(N)ncnc54)c3OC(C)C2)C1 (single isomer, unassigned) [Example 98, 3-[9-[1-(4-amino-3-methyl-1H-pyrazolo[3,4-d]pyrimidin-1-yl)ethyl]-7-chloro-6-cyano-2-methyl-2,3-dihydro-1,4-benzoxazepin-4(5H)-yl]-N-ethylazetidine-1-carboxamide] |
| ≤ 0.1 | CCOC(=O)N1CC(N2Cc3c(C#N)c(Cl)cc(C(C)n4nc(C)c5c(N)ncnc54)c3OC(C)C2)C1 (single isomer, unassigned) [Example 99, ethyl 3-[9-[1-(4-amino-3-methyl-1H-pyrazolo[3,4-d]pyrimidin-1-yl)ethyl]-7-chloro-6-cyano-2-methyl-2,3-dihydro-1,4-benzoxazepin-4(5H)-yl]azetidine-1-carboxylate] |
| ≤ 0.1 | CCOC(=O)N1CC(N2Cc3c(C#N)c(Cl)cc(C(C)n4nc(C)c5c(N)ncnc54)c3OC(C)C2)C1 (single isomer, unassigned) [Example 100, ethyl 3-[9-[1-(4-amino-3-methyl-1H-pyrazolo[3,4-d]pyrimidin-1-yl)ethyl]-7-chloro-6-cyano-2-methyl-2,3-dihydro-1,4-benzoxazepin-4(5H)-yl]azetidine-1-carboxylate] |
| ≤ 0.1 | Cc1nn(C(C)c2cc(Cl)c(C#N)c3c2OC(C)CN(C2CN(C(=O)NC(C)C)C2)C3)c2ncnc(N)c12 (single isomer, unassigned) [Example 101, 3-[9-[1-(4-amino-3-methyl-1H-pyrazolo[3,4-d]pyrimidin-1-yl)ethyl]-7-chloro-6-cyano-2-methyl-2,3-dihydro-1,4-benzoxazepin-4(5H)-yl]-N-isopropylazetidine-1-carboxamide] |
